Measured values taken from patent publication US3954733A, “Naphthyridine-3-carboxamido-benzylpenicillins and salts thereof” (Sumitomo Chemical Company, Limited, priority 1973, dated 1976).
Values after ≈ are worked out from the molar mass of the structure shown.

Tests used:
Assay in all cases: minimal inhibitory concentration, agar dilution method
Format in all cases: cell-based
[1] = system: Pseudomonas aeruginosa 104
Excerpt: (§1) When determined according to the agar dilution method, the penicillins (I) afford the minimal inhibitory concentrations against test microorganisms as shown in Table 2.

[2] = system: Staphylococcus aureus 209P
Excerpt: as §1

Escherichia coli NIHJ = system: Escherichia coli NIHJ
Excerpt: as §1

Proteus vulgaris HV19 = system: Proteus vulgaris HV19
Proteus miravilis GN2425 = system: Proteus miravilis GN2425

SMILES | MIC [1] [µg/mL] | MIC [2] [µg/mL] | MIC (Escherichia coli NIHJ) [µg/mL] | MIC (Proteus vulgaris HV19) [µg/mL] | MIC (Proteus miravilis GN2425) [µg/mL]
CC(C)(C)C(=O)Oc1ccc([C@@H](NC(=O)c2cnc3ccccc3c2O)C(=O)N[C@@H]2C(=O)N3[C@@H]2SC(C)(C)[C@@H]3C(=O)O)cc1 [Example 4, D-α-(4-hydroxyquinoline-3-carboxamido)-p-pivaloyloxybenzylpenicillin] | 6.25 (≈ 10.1 µM) | 0.39 (≈ 0.628 µM) | 6.25 (≈ 10.1 µM) | 0.2 (≈ 0.322 µM) | 6.25 (≈ 10.1 µM)
CCOC(=O)Oc1ccc([C@@H](NC(=O)c2cnc3scnc3c2O)C(=O)N[C@@H]2C(=O)N3[C@@H]2SC(C)(C)[C@@H]3C(=O)O)cc1 [Example 42] | 6.25 (≈ 10.2 µM) | 0.78 (≈ 1.27 µM) | 3.13 (≈ 5.08 µM) | 0.2 (≈ 0.325 µM) | 6.25 (≈ 10.2 µM)
CCOC(=O)Oc1ccc([C@@H](NC(=O)c2cnc3cccnc3c2O)C(=O)N[C@@H]2C(=O)N3[C@@H]2SC(C)(C)[C@@H]3C(=O)O)cc1 [Example 9, D-α-(4-hydroxy-1,5-naphthyridine-3-carboxamido)-p-ethoxycarbonyloxybenzylpenicillin] | 3.13 (≈ 5.13 µM) | 1.56 (≈ 2.56 µM) | 3.13 (≈ 5.13 µM) | 0.05 (≈ 0.082 µM) | 3.13 (≈ 5.13 µM)
CCOC(=O)Oc1ccc([C@@H](NC(=O)c2cnc3nc(C)ccc3c2O)C(=O)N[C@@H]2C(=O)N3[C@@H]2SC(C)(C)[C@@H]3C(=O)O)cc1 [Example 15] | 3.13 (≈ 5.02 µM) | 1.56 (≈ 2.5 µM) | 3.13 (≈ 5.02 µM) | 0.1 (≈ 0.16 µM) | 6.25 (≈ 10 µM)
COc1nc(OC)c2c(O)c(C(=O)N[C@@H](C(=O)N[C@@H]3C(=O)N4[C@@H]3SC(C)(C)[C@@H]4C(=O)O)c3ccc(O)cc3)cnc2n1 [Example 28] | 3.13 (≈ 5.23 µM) | 0.78 (≈ 1.3 µM) | 3.13 (≈ 5.23 µM) | 0.05 (≈ 0.0835 µM) | 3.13 (≈ 5.23 µM)
CC1(C)S[C@@H]2[C@H](NC(=O)[C@H](NC(=O)c3cnc4ccccc4c3O)c3cccc(O)c3)C(=O)N2[C@H]1C(=O)O [Example 13] | 6.25 (≈ 11.6 µM) | 0.78 (≈ 1.45 µM) | 6.25 (≈ 11.6 µM) | 0.2 (≈ 0.373 µM) | 3.13 (≈ 5.83 µM)
CC1(C)S[C@@H]2[C@H](NC(=O)[C@H](NC(=O)c3cnc4cncnc4c3O)c3ccc(O)cc3)C(=O)N2[C@H]1C(=O)O [Example 34] | 1.56 (≈ 2.9 µM) | 0.78 (≈ 1.45 µM) | 1.56 (≈ 2.9 µM) | 0.05 (≈ 0.0928 µM) | 1.56 (≈ 2.9 µM)
COc1ccc2ncc(C(=O)N[C@@H](C(=O)N[C@@H]3C(=O)N4[C@@H]3SC(C)(C)[C@@H]4C(=O)O)c3ccc(O)cc3)c(O)c2n1 [Example 19] | 3.13 (≈ 5.51 µM) | 0.78 (≈ 1.37 µM) | 3.13 (≈ 5.51 µM) | 0.05 (≈ 0.0881 µM) | 3.13 (≈ 5.51 µM)
CCOC(=O)Oc1ccc(C(NC(=O)c2cnc3ccc(N(C)C)nc3c2O)C(=O)N[C@@H]2C(=O)N3[C@@H]2SC(C)(C)[C@@H]3C(=O)O)cc1 (mixture of isomers) [Example 3, DL-α-(4-hydroxy-6-dimethylamino-1,5-naphthyridine-3-carboxamido)-p-ethoxycarbonyloxybenzylpenicillin] | 3.13 | 1.56 | 1.56 | 0.1 | 1.56
CC1(C)S[C@@H]2[C@H](NC(=O)[C@H](NC(=O)c3cnc4cccnc4c3O)c3ccc(O)cc3)C(=O)N2[C@H]1C(=O)O [Example 1, D-α-(4-hydroxy-1,5-naphthyridine-3-carboxamido)-p-hydroxybenzylpenicillin] | 1.56 (≈ 2.9 µM) | 0.78 (≈ 1.45 µM) | 1.56 (≈ 2.9 µM) | 0.025 (≈ 0.0465 µM) | 1.56 (≈ 2.9 µM)
CC(C)COC(=O)Oc1ccc([C@@H](NC(=O)c2cnc3nc(N(C)C)ncc3c2O)C(=O)N[C@@H]2C(=O)N3[C@@H]2SC(C)(C)[C@@H]3C(=O)O)cc1 [Example 30] | 6.25 (≈ 9.17 µM) | 0.78 (≈ 1.14 µM) | 6.25 (≈ 9.17 µM) | 0.05 (≈ 0.0733 µM) | 3.13 (≈ 4.59 µM)
CC1(C)S[C@@H]2[C@H](NC(=O)C(NC(=O)c3cnc4ccccc4c3O)c3ccc(O)cc3)C(=O)N2[C@H]1C(=O)O (mixture of isomers) [Example 6, DL-α-(4-hydroxyquinoline-3-carboxamido)-p-hydroxybenzylpenicillin] | 6.25 | 0.78 | 6.25 | 0.2 | 6.25
CC1(C)S[C@@H]2[C@H](NC(=O)[C@H](NC(=O)c3cnc4ccc(O)nc4c3O)c3ccc(O)cc3)C(=O)N2[C@H]1C(=O)O [Example 22] | 3.13 (≈ 5.65 µM) | 0.78 (≈ 1.41 µM) | 1.56 (≈ 2.82 µM) | 0.05 (≈ 0.0903 µM) | 1.56 (≈ 2.82 µM)
CC1(C)S[C@@H]2[C@H](NC(=O)C(NC(=O)c3cnc4cccnc4c3O)c3cccc(O)c3)C(=O)N2[C@H]1C(=O)O (stereo partly shown) [Example 16] | 3.13 (≈ 5.82 µM) | 1.56 (≈ 2.9 µM) | 3.13 (≈ 5.82 µM) | 0.05 (≈ 0.093 µM) | 3.13 (≈ 5.82 µM)
CCOC(=O)Oc1ccc([C@@H](NC(=O)c2cnc3cccnc3c2OC(=O)OCC)C(=O)N[C@@H]2C(=O)N3[C@@H]2SC(C)(C)[C@@H]3C(=O)O)cc1 [Example 37] | 1.56 (≈ 2.29 µM) | 0.78 (≈ 1.14 µM) | 1.56 (≈ 2.29 µM) | 0.025 (≈ 0.0367 µM) | 1.56 (≈ 2.29 µM)
CC1(C)S[C@@H]2[C@H](NC(=O)[C@H](NC(=O)c3cnc4cccnc4c3O)c3ccc(O)c(Cl)c3)C(=O)N2[C@H]1C(=O)O [Example 32] | 3.13 (≈ 5.47 µM) | 0.78 (≈ 1.36 µM) | 3.13 (≈ 5.47 µM) | 0.05 (≈ 0.0874 µM) | 6.25 (≈ 10.9 µM)
CCOC(=O)Oc1ccc([C@@H](NC(=O)c2cnc3ccc(NC(C)=O)nc3c2O)C(=O)N[C@@H]2C(=O)N3[C@@H]2SC(C)(C)[C@@H]3C(=O)O)cc1 [Example 23] | 3.13 (≈ 4.69 µM) | 1.56 (≈ 2.34 µM) | 3.13 (≈ 4.69 µM) | 0.2 (≈ 0.3 µM) | 3.13 (≈ 4.69 µM)
COc1cnc2c(O)c(C(=O)N[C@@H](C(=O)N[C@@H]3C(=O)N4[C@@H]3SC(C)(C)[C@@H]4C(=O)O)c3ccc(O)cc3)cnc2n1 [Example 41] | 3.13 (≈ 5.51 µM) | 1.56 (≈ 2.74 µM) | 6.25 (≈ 11 µM) | 0.2 (≈ 0.352 µM) | 6.25 (≈ 11 µM)
Cc1ccc2ncc(C(=O)N[C@@H](C(=O)N[C@@H]3C(=O)N4[C@@H]3SC(C)(C)[C@@H]4C(=O)O)c3ccc(O)cc3)c(O)c2n1 [Example 18] | 1.56 (≈ 2.83 µM) | 0.78 (≈ 1.41 µM) | 1.56 (≈ 2.83 µM) | 0.05 (≈ 0.0906 µM) | 1.56 (≈ 2.83 µM)
Cc1nc(C)c2ncc(C(=O)N[C@@H](C(=O)N[C@@H]3C(=O)N4[C@@H]3SC(C)(C)[C@@H]4C(=O)O)c3ccc(O)cc3)c(O)c2n1 [Example 35] | 1.56 (≈ 2.75 µM) | 0.78 (≈ 1.38 µM) | 1.56 (≈ 2.75 µM) | 0.025 (≈ 0.0441 µM) | 1.56 (≈ 2.75 µM)
CC1(C)S[C@@H]2[C@H](NC(=O)[C@H](NC(=O)c3cc4ccccc4nc3O)c3ccc(O)cc3)C(=O)N2[C@H]1C(=O)O [Example 27] | 6.25 (≈ 11.6 µM) | 0.78 (≈ 1.45 µM) | 6.25 (≈ 11.6 µM) | 0.2 (≈ 0.373 µM) | 3.13 (≈ 5.83 µM)
CCOC(=O)Oc1c(C(=O)N[C@@H](C(=O)N[C@@H]2C(=O)N3[C@@H]2SC(C)(C)[C@@H]3C(=O)O)c2ccc(OC(=O)OCc3ccccc3)cc2)cnc2cccnc12 [Example 5, D-α-(4-ethoxycarbonyloxy-1,5-naphthyridine-3-carboxamido)-p-benzyloxycarbonyloxybenzylpenicillin] | 3.13 (≈ 4.21 µM) | 1.56 (≈ 2.1 µM) | 3.13 (≈ 4.21 µM) | 0.05 (≈ 0.0672 µM) | 3.13 (≈ 4.21 µM)
CCOC(=O)Oc1ccc([C@@H](NC(=O)c2cnc3ccc(SC)nc3c2O)C(=O)N[C@@H]2C(=O)N3[C@@H]2SC(C)(C)[C@@H]3C(=O)O)cc1 [Example 17] | 1.56 (≈ 2.38 µM) | 0.78 (≈ 1.19 µM) | 1.56 (≈ 2.38 µM) | 0.1 (≈ 0.153 µM) | 1.56 (≈ 2.38 µM)
CCOC(=O)Oc1ccc([C@@H](NC(=O)c2cnc3cn[nH]c3c2O)C(=O)N[C@@H]2C(=O)N3[C@@H]2SC(C)(C)[C@@H]3C(=O)O)cc1 [Example 33] | 6.25 (≈ 10.4 µM) | 0.78 (≈ 1.3 µM) | 3.13 (≈ 5.23 µM) | 0.1 (≈ 0.167 µM) | 3.13 (≈ 5.23 µM)
Cc1nc(C)c2c(O)c(C(=O)N[C@@H](C(=O)N[C@@H]3C(=O)N4[C@@H]3SC(C)(C)[C@@H]4C(=O)O)c3ccc(O)cc3)cnc2n1 [Example 31] | 3.13 (≈ 5.52 µM) | 0.78 (≈ 1.38 µM) | 3.13 (≈ 5.52 µM) | 0.1 (≈ 0.176 µM) | 3.13 (≈ 5.52 µM)
CCOC(=O)Oc1ccc([C@@H](NC(=O)c2cnc3ccccc3c2OC(=O)OCC)C(=O)N[C@@H]2C(=O)N3[C@@H]2SC(C)(C)[C@@H]3C(=O)O)cc1 [Example 12] | 6.25 (≈ 9.18 µM) | 0.78 (≈ 1.15 µM) | 3.13 (≈ 4.6 µM) | 0.2 (≈ 0.294 µM) | 3.13 (≈ 4.6 µM)
